Source: the supplement of paper PMC6045584
± gives the standard deviation of the averaged measurements.

Columns and labels:
CARBOPLATIN [1] = compound: T1, O=C(O)C1(C(=O)O)CCC1.[NH2-].[NH2-].[Pt+2] [CARBOPLATIN]; experiment: surviving fraction relative to DMSO-only wells; higher = less growth inhibition; settings: exposure time: 5 days
Outline: (§1)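 After seeding at 250–500 cells per well in 384-well plates and a 24-hour wait, log-phase tumour cell lines were exposed without interruption for five days to inhibitors at 0.5, 1, 5, 10, 50, 100, 500 and 1000 nM. CellTiter-Glo luminescence was recorded after 10 minutes at room temperature. Viability is reported as surviving fraction, the luminescence normalised to the median of DMSO-only wells.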

[2] = compound: CC(=O)NCC(=O)N1[C@@H]2CC[C@H]1c1ccc(Nc3ncc(C(F)(F)F)c(NC4CCC4)n3)cc12; experiment: as above; settings: exposure time: 5 days
Outline: as §1

PACLITAXEL [3] = compound: T2, CC(=O)O[C@H]1C(=O)[C@@]2(C)[C@H]([C@H](OC(=O)c3ccccc3)[C@]3(O)C[C@H](OC(=O)[C@H](O)[C@@H](NC(=O)c4ccccc4)c4ccccc4)C(C)=C1C3(C)C)[C@]1(OC(C)=O)CO[C@@H]1C[C@@H]2O [PACLITAXEL]; experiment: as above; settings: exposure time: 5 days
Outline: as §1

CELECOXIB [4] = compound: T3, Cc1ccc(-c2cc(C(F)(F)F)nn2-c2ccc(S(N)(=O)=O)cc2)cc1 [CELECOXIB]; experiment: as above; settings: exposure time: 5 days
Outline: as §1

CAMPTOTHECIN [5] = compound: T4, CC[C@@]1(O)C(=O)OCc2c1cc1n(c2=O)Cc2cc3ccccc3nc2-1 [CAMPTOTHECIN]; experiment: as above; settings: exposure time: 5 days
Outline: as §1

YM155 [6] = compound: T5, COCC[n+]1c2c(n(Cc3cnccn3)c1C)C(=O)c1ccccc1C2=O [YM155]; experiment: as above; settings: exposure time: 5 days
Outline: as §1

GEFITINIB [7] = compound: T6, COc1cc2ncnc(Nc3ccc(F)c(Cl)c3)c2cc1OCCCN1CCOCC1 [GEFITINIB]; experiment: as above; settings: exposure time: 5 days
Outline: as §1

[8] = compound: CC(=O)c1c(C)c2cnc(Nc3ccc(N4CCNCC4)cn3)nc2n(C2CCCC2)c1=O; experiment: as above; settings: exposure time: 5 days
Outline: as §1

OSI-906 [9] = compound: T7, C[C@]1(O)C[C@@H](c2nc(-c3ccc4ccc(-c5ccccc5)nc4c3)c3c(N)nccn32)C1 [OSI-906]; experiment: as above; settings: exposure time: 5 days
Outline: as §1

CARBOPLATIN [10] = compound: T1, CARBOPLATIN; experiment: area under dose-response curve of surviving fraction (unscaled, Aref=0) (surviving fraction x log10(nM)); higher = more resistant; settings: exposure time: 5 days; dose range 0.5-1000 nM
Outline: (§2)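 Surviving fractions were fitted by 3-parameter logistic regression in the drc R package to give dose-response survival curves. They came from tumour cell lines treated for five days with eight inhibitor concentrations from 0.5 to 1000 nM and read by CellTiter-Glo luminescence against DMSO-only wells. The area under the curve is the unscaled activity area. It was calculated over log10 dose with Aref = 0.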

[11] = compound: CC(=O)NCC(=O)N1[C@@H]2CC[C@H]1c1ccc(Nc3ncc(C(F)(F)F)c(NC4CCC4)n3)cc12; experiment: as above; settings: exposure time: 5 days; dose range 0.5-1000 nM
Outline: as §2

PACLITAXEL [12] = compound: T2, PACLITAXEL; experiment: as above; settings: exposure time: 5 days; dose range 0.5-1000 nM
Outline: as §2

CELECOXIB [13] = compound: T3, CELECOXIB; experiment: as above; settings: exposure time: 5 days; dose range 0.5-1000 nM
Outline: as §2

CAMPTOTHECIN [14] = compound: T4, CAMPTOTHECIN; experiment: as above; settings: exposure time: 5 days; dose range 0.5-1000 nM
Outline: as §2

YM155 [15] = compound: T5, YM155; experiment: as above; settings: exposure time: 5 days; dose range 0.5-1000 nM
Outline: as §2

GEFITINIB [16] = compound: T6, GEFITINIB; experiment: as above; settings: exposure time: 5 days; dose range 0.5-1000 nM
Outline: as §2

[17] = compound: CC(=O)c1c(C)c2cnc(Nc3ccc(N4CCNCC4)cn3)nc2n(C2CCCC2)c1=O; experiment: as above; settings: exposure time: 5 days; dose range 0.5-1000 nM
Outline: as §2

OSI-906 [18] = compound: T7, OSI-906; experiment: as above; settings: exposure time: 5 days; dose range 0.5-1000 nM
Outline: as §2

C33A CERVIX
surviving fraction (CARBOPLATIN [1]; 0.5 nM): 1.14 ± 0.063 | surviving fraction (CARBOPLATIN [1]; 1 nM): 1.14 ± 0.085 | surviving fraction (CARBOPLATIN [1]; 5 nM): 1.19 ± 0.082 | surviving fraction (CARBOPLATIN [1]; 10 nM): 1.43 ± 0.17 | surviving fraction (CARBOPLATIN [1]; 50 nM): 1.21 ± 0.066 | surviving fraction (CARBOPLATIN [1]; 100 nM): 1.43 ± 0.13 | surviving fraction (CARBOPLATIN [1]; 500 nM): 1.15 ± 0.051 | surviving fraction (CARBOPLATIN [1]; 1000 nM): 1.31 ± 0.024 | surviving fraction ([2]; 0.5 nM): 0.77 ± 0.079 | surviving fraction ([2]; 1 nM): 0.707 ± 0.032 | surviving fraction ([2]; 5 nM): 0.895 ± 0.062 | surviving fraction ([2]; 10 nM): 0.953 ± 0.069 | surviving fraction ([2]; 50 nM): 0.665 ± 0.087 | surviving fraction ([2]; 100 nM): 0.515 ± 0.03 | surviving fraction ([2]; 500 nM): 0.396 ± 0.011 | surviving fraction ([2]; 1000 nM): 0.351 ± 0.012 | surviving fraction (PACLITAXEL [3]; 0.5 nM): 0.855 ± 0.042 | surviving fraction (PACLITAXEL [3]; 1 nM): 0.842 ± 0.054 | surviving fraction (PACLITAXEL [3]; 5 nM): 0.328 ± 0.015 | surviving fraction (PACLITAXEL [3]; 10 nM): 0.179 ± 0.031 | surviving fraction (PACLITAXEL [3]; 50 nM): 0.11 ± 0.0091 | surviving fraction (PACLITAXEL [3]; 100 nM): 0.173 ± 0.047 | surviving fraction (PACLITAXEL [3]; 500 nM): 0.089 ± 0.021 | surviving fraction (PACLITAXEL [3]; 1000 nM): 0.0977 ± 0.025 | surviving fraction (CELECOXIB [4]; 0.5 nM): 0.897 ± 0.037 | surviving fraction (CELECOXIB [4]; 1 nM): 0.951 ± 0.11 | surviving fraction (CELECOXIB [4]; 5 nM): 1.01 ± 0.083 | surviving fraction (CELECOXIB [4]; 10 nM): 0.954 ± 0.037 | surviving fraction (CELECOXIB [4]; 50 nM): 0.932 ± 0.11 | surviving fraction (CELECOXIB [4]; 100 nM): 1.04 ± 0.088 | surviving fraction (CELECOXIB [4]; 500 nM): 0.981 ± 0.13 | surviving fraction (CELECOXIB [4]; 1000 nM): 1.11 ± 0.035 | surviving fraction (CAMPTOTHECIN [5]; 0.5 nM): 0.863 ± 0.019 | surviving fraction (CAMPTOTHECIN [5]; 1 nM): 0.868 ± 0.074 | surviving fraction (CAMPTOTHECIN [5]; 5 nM): 0.654 ± 0.1 | surviving fraction (CAMPTOTHECIN [5]; 10 nM): 0.423 ± 0.024 | surviving fraction (CAMPTOTHECIN [5]; 50 nM): 0.126 ± 0.03 | surviving fraction (CAMPTOTHECIN [5]; 100 nM): 0.0787 ± 0.0078 | surviving fraction (CAMPTOTHECIN [5]; 500 nM): 0.0317 ± 0.0032 | surviving fraction (CAMPTOTHECIN [5]; 1000 nM): 0.0383 ± 0.016 | surviving fraction (YM155 [6]; 0.5 nM): 0.816 ± 0.047 | surviving fraction (YM155 [6]; 1 nM): 0.325 ± 0.029 | surviving fraction (YM155 [6]; 5 nM): 0.057 ± 0.032 | surviving fraction (YM155 [6]; 10 nM): 0.031 ± 0.0062 | surviving fraction (YM155 [6]; 50 nM): 0.0213 ± 0.00058 | surviving fraction (YM155 [6]; 100 nM): 0.0393 ± 0.041 | surviving fraction (YM155 [6]; 500 nM): 0.0193 ± 0.0076 | surviving fraction (YM155 [6]; 1000 nM): 0.0353 ± 0.015 | surviving fraction (GEFITINIB [7]; 0.5 nM): 0.925 ± 0.067 | surviving fraction (GEFITINIB [7]; 1 nM): 1.01 ± 0.063 | surviving fraction (GEFITINIB [7]; 5 nM): 1.01 ± 0.018 | surviving fraction (GEFITINIB [7]; 10 nM): 0.969 ± 0.049 | surviving fraction (GEFITINIB [7]; 50 nM): 0.91 ± 0.052 | surviving fraction (GEFITINIB [7]; 100 nM): 0.973 ± 0.02 | surviving fraction (GEFITINIB [7]; 500 nM): 0.551 ± 0.054 | surviving fraction (GEFITINIB [7]; 1000 nM): 0.457 ± 0.058 | surviving fraction ([8]; 0.5 nM): 0.978 ± 0.065 | surviving fraction ([8]; 1 nM): 1.05 ± 0.066 | surviving fraction ([8]; 5 nM): 1.14 ± 0.13 | surviving fraction ([8]; 10 nM): 1.08 ± 0.067 | surviving fraction ([8]; 50 nM): 1.15 ± 0.13 | surviving fraction ([8]; 100 nM): 1.2 ± 0.11 | surviving fraction ([8]; 500 nM): 1.01 ± 0.082 | surviving fraction ([8]; 1000 nM): 1.16 ± 0.12 | surviving fraction (OSI-906 [9]; 0.5 nM): 0.981 ± 0.054 | surviving fraction (OSI-906 [9]; 1 nM): 0.945 ± 0.052 | surviving fraction (OSI-906 [9]; 5 nM): 1.08 ± 0.011 | surviving fraction (OSI-906 [9]; 10 nM): 1.1 ± 0.053 | surviving fraction (OSI-906 [9]; 50 nM): 1.02 ± 0.13 | surviving fraction (OSI-906 [9]; 100 nM): 1.05 ± 0.14 | surviving fraction (OSI-906 [9]; 500 nM): 1.06 ± 0.096 | surviving fraction (OSI-906 [9]; 1000 nM): 0.985 ± 0.011 | area under dose-response curve (CARBOPLATIN [10]): 4.12 | area under dose-response curve [11]: 2.24 | area under dose-response curve (PACLITAXEL [12]): 0.98 | area under dose-response curve (CELECOXIB [13]): 3.25 | area under dose-response curve (CAMPTOTHECIN [14]): 1.24 | area under dose-response curve (YM155 [15]): 0.324 | area under dose-response curve (GEFITINIB [16]): 2.98 | area under dose-response curve [17]: 3.67 | area under dose-response curve (OSI-906 [18]): 3.42
